pIC50, pKi: −log10 of the molar value.
Legend:
[1] = molecular target: T1, 5-hydroxytryptamine receptor 2B (Homo sapiens, UniProt P41595); assay: Antagonist activity at 5HT2B (unknown origin) expressed in FRT cells co-expressing ANO1 and YFP assessed as inhibition of 5HT-induced increase in iodide influx at 1 uM preincubated with compound for 10 mins followed by 5-HT addition and measured after 8 sec by YFP fluorescence quenching analysis relative to control; type: cell-based; settings: time 608.0 sec
T1 sequence (P41595 whole entry): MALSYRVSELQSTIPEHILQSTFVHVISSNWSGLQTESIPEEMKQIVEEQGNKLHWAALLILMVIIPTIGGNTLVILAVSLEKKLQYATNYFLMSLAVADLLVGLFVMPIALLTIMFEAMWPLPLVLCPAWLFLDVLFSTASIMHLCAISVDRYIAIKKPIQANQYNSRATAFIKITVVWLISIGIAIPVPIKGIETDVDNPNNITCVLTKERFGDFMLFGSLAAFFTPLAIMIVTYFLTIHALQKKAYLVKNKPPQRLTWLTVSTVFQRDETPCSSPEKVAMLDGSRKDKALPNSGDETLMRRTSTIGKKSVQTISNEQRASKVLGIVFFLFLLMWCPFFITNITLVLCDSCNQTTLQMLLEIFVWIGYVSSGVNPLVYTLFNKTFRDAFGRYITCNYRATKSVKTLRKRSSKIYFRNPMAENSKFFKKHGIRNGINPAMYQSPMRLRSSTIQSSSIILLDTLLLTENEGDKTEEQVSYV

[2] = molecular target: T1, 5-hydroxytryptamine receptor 2B; assay: Binding affinity to 5-HT2B (unknown origin) assessed as inhibition constant by receptor binding assay
[3] = molecular target: T1, 5-hydroxytryptamine receptor 2B; assay: Antagonist activity at 5HT2B (unknown origin) expressed in FRT cells co-expressing ANO1 and YFP assessed as inhibition of 5HT-induced increase in iodide influx preincubated with compound for 10 mins followed by 5-HT addition and measured after 8 sec by YFP fluorescence quenching analysis; type: cell-based
[4] = molecular target: T1, 5-hydroxytryptamine receptor 2B; assay: Binding affinity to 5-HT2B (unknown origin)

Compound	inhibition ([1]; filed as antagonist)	also measured
COc1ccc(S(=O)(=O)N[C@@H]2CCN(C(=O)C[C@H](N)C(=O)O)C2)cc1C(=O)Nc1ccccc1Cl	100%	–
NCC(=O)NCCN1CCN(CCCN2c3ccccc3Sc3ccc(C(F)(F)F)cc32)CC1	–	pKi [2]: 8.28
COc1ccc(S(=O)(=O)N[C@H]2CCNC2)cc1C(=O)Nc1ccccc1Cl	93.7%	–
COc1ccc(S(=O)(=O)N[C@H]2CCOC2)cc1C(=O)Nc1ccccc1N	–	inhibition [1]: 32.8%
COc1ccc(S(=O)(=O)N[C@H]2CCN(C(=O)[C@@H](N)CC(=O)O)C2)cc1C(=O)Nc1ccccc1Cl	94.3%	pIC50 [3]: 7.09
O=C(c1ccc(-c2ccccc2)cc1)N1CCC(c2cc3ccccc3[nH]2)CC1	–	pIC50 [4]: 8.62
COc1ccc(S(=O)(=O)N[C@H]2CCOC2)cc1C(=O)Nc1ccccc1N1CCN(C(=O)OC(C)(C)C)CC1	–	inhibition [1]: 1.64%
COc1ccc(S(=O)(=O)NC2CCN(C(=O)OC(C)(C)C)CC2)cc1C(=O)Nc1ccccc1Cl	47.1%	–
COc1ccc(S(=O)(=O)N[C@H]2CCN(C(=O)OC(C)(C)C)C2)cc1C(=O)Nc1ccccc1Cl	96.1%	–
COc1ccc(S(=O)(=O)NC2CCNCC2)cc1C(=O)Nc1ccccc1Cl	96.3%	–

Source: ChEMBL document CHEMBL6115026, “Synthesis and Biological Evaluation of Peripheral 5HT2B Antagonists for Liver Fibrosis” (J Med Chem, 2025)
